# Activity calls are given as the source filed them. The rule behind the calls is not given here.
# Legend:
# Format in all cases: functional
# [1] = system: Candida albicans; test: Antifungal activity against Candida albicans MTCC 3018 after 48 hr by serial tube dilution method; details: MTCC 3018, 48 h
# [2] = system: Aspergillus niger; test: Antifungal activity against Aspergillus niger MTCC 1344 after 48 hr by serial tube dilution method; details: MTCC 1344, 48 h
# [3] = system: Pseudomonas aeruginosa; test: Antibacterial activity against Pseudomonas aeruginosa MTCC 2642 after 24 hr by serial tube dilution method
# [4] = system: HEp-2; test: Cytotoxicity against Homo sapiens (human) Hep2 cells assessed as cell growth inhibition at 1 x 10^-5 M after 48 hr by SRB assay; details: for inhibition of growth at 10 µM: HEp-2, 48 h, read-out: GI
# [5] = system: PC-3; test: Cytotoxicity against Homo sapiens (human) PC3 cells assessed as cell growth inhibition at 1 x 10^-5 M after 48 hr by SRB assay; details: for inhibition of growth at 10 µM: PC-3, 48 h, read-out: GI
# [6] = system: Staphylococcus aureus; test: Antibacterial activity against Staphylococcus aureus MTCC 96 after 24 hr by serial tube dilution method
# [7] = system: Escherichia coli; test: Antibacterial activity against Escherichia coli MTCC 82 after 24 hr by serial tube dilution method
# [8] = system: Salmonella typhi; test: Antibacterial activity against Salmonella enterica subsp. enterica serovar Typhi MTCC 1251 after 24 hr by serial tube dilution method
# [9] = system: IMR-32; test: Cytotoxicity against Homo sapiens (human) IMR32 cells assessed as cell growth inhibition at 1 x 10^-5 M after 48 hr by SRB assay; details: for inhibition of growth at 10 µM: IMR-32, 48 h, read-out: GI
# [10] = system: OVCAR; test: Cytotoxicity against Homo sapiens (human) OVCAR cells assessed as cell growth inhibition at 1 x 10^-5 M after 48 hr by SRB assay; details: for inhibition of growth at 10 µM: read-out: GI
# [11] = system: Bacillus subtilis; test: Antibacterial activity against Bacillus subtilis MTCC 2451 after 24 hr by serial tube dilution method
Compound,MIC [1],MIC [2],"MIC ([3]; MTCC 2642, 24 h)",inhibition of growth at 10 µM [4],growth inhibition (GI) [5],"MIC ([6]; MTCC 96, 24 h)","MIC ([7]; MTCC 82, 24 h)","MIC ([8]; MTCC 1251, 24 h)",growth inhibition (GI) [9],growth inhibition (GI) [10],"MIC ([11]; MTCC 2451, 24 h)",inhibition of growth at 10 µM [5],inhibition of growth at 10 µM [9],inhibition of growth at 10 µM [10],MIC [3],MIC [6],MIC [7],MIC [8],MIC [11],growth inhibition (GI) [4]
O=C(/C=C/c1c(Cl)cccc1Cl)c1ccco1,250 µg/mL,250 µg/mL,250 µg/mL,11%,inactive,62.5 µg/mL,62.5 µg/mL,125 µg/mL,inactive,inactive,125 µg/mL,,,,,,,,,
O=C(/C=C/c1ccc2ccccc2c1)c1ccc2ccccc2c1,,,250 µg/mL,73%,,62.5 µg/mL,125 µg/mL,,,,125 µg/mL,79%,77%,76%,,,,,,
COc1ccc(OC)c(/C=C/C(=O)c2ccco2)c1,125 µg/mL,125 µg/mL,31.2 µg/mL,29%,,62.5 µg/mL,31.2 µg/mL,62.5 µg/mL,,inactive,31.2 µg/mL,23%,31%,,,,,,,
O=C(/C=C/c1cccc(Cl)c1Cl)c1ccc2ccccc2c1,250 µg/mL,250 µg/mL,62.5 µg/mL,9%,inactive,31.2 µg/mL,31.2 µg/mL,62.5 µg/mL,inactive,,31.2 µg/mL,,,11%,,,,,,
COc1ccc(/C=C/C(=O)c2ccc3ccccc3c2)cc1,,,,29%,,,,,,,,33%,36%,31%,,,,,,
COc1ccc(/C=C/C(=O)c2ccc3ccccc3c2)cc1OC,500 µg/mL,250 µg/mL,125 µg/mL,53%,,62.5 µg/mL,125 µg/mL,62.5 µg/mL,,,62.5 µg/mL,53%,51%,49%,,,,,,
O=C(/C=C/c1cccc([N+](=O)[O-])c1)c1ccc[nH]1,,500 µg/mL,,17%,,125 µg/mL,250 µg/mL,500 µg/mL,,inactive,250 µg/mL,13%,14%,,,,,,,
O=C(/C=C/c1ccc(Cl)cc1Cl)c1ccc[nH]1,125 µg/mL,62.5 µg/mL,31.2 µg/mL,16%,inactive,7.8 µg/mL,15.6 µg/mL,15.6 µg/mL,inactive,,15.6 µg/mL,,,13%,,,,,,
O=C(/C=C/c1cccc(Cl)c1Cl)c1ccc[nH]1,250 µg/mL,125 µg/mL,7.8 µg/mL,15%,,7.8 µg/mL,15.6 µg/mL,15.6 µg/mL,inactive,inactive,31.2 µg/mL,11%,,,,,,,,
O=C(/C=C/c1ccccc1)c1ccc2ccccc2c1,,,500 µg/mL,27%,,250 µg/mL,500 µg/mL,,,,,28%,19%,21%,,,,,,
COc1cc(/C=C/C(=O)c2ccc3ccccc3c2)cc(OC)c1OC,125 µg/mL,125 µg/mL,15.6 µg/mL,79%,,1.9 µg/mL,3.9 µg/mL,15.6 µg/mL,,,3.9 µg/mL,84%,81%,87%,,,,,,
GENTAMICIN,,,,,,,,,,,,,,,0.25 µg/mL,0.4 µg/mL,0.25 µg/mL,0.2 µg/mL,0.3 µg/mL,
O=C(/C=C/c1ccc2c(c1)OCO2)c1ccc2ccccc2c1,,,250 µg/mL,42%,,62.5 µg/mL,125 µg/mL,125 µg/mL,,,125 µg/mL,42%,39%,46%,,,,,,
COc1ccc(/C=C/C(=O)c2ccc3ccccc3c2)c(OC)c1OC,125 µg/mL,62.5 µg/mL,7.8 µg/mL,72%,,3.9 µg/mL,15.6 µg/mL,15.6 µg/mL,,,3.9 µg/mL,81%,75%,88%,,,,,,
COc1ccc(/C=C/C(=O)c2ccco2)cc1O,250 µg/mL,250 µg/mL,125 µg/mL,19%,,31.2 µg/mL,62.5 µg/mL,62.5 µg/mL,,,62.5 µg/mL,21%,16%,23%,,,,,,
COc1cccc(/C=C/C(=O)c2ccc[nH]2)c1OC,,,,33%,,,,,,,,31%,28%,24%,,,,,,
CC1(C)S[C@@H]2[C@H](NC(=O)[C@H](N)c3ccc(O)cc3)C(=O)N2[C@H]1C(=O)O [AMOXICILLIN],,,0.3 µg/mL,,,0.2 µg/mL,0.25 µg/mL,0.2 µg/mL,,,0.2 µg/mL,,,,,,,,,
O=C(/C=C/c1cccc([N+](=O)[O-])c1)c1ccc2ccccc2c1,,,,17%,,125 µg/mL,250 µg/mL,,,,,16%,11%,13%,,,,,,
O=C(/C=C/c1ccccc1)c1ccco1,,,,,,250 µg/mL,,,,inactive,250 µg/mL,19%,13%,,,,,,,inactive
O=C(/C=C/c1cccc(Br)c1)c1ccc2ccccc2c1,,,250 µg/mL,,inactive,125 µg/mL,250 µg/mL,125 µg/mL,,,125 µg/mL,,11%,14%,,,,,,inactive
O=C(/C=C/c1ccccc1)c1ccc[nH]1,,,,23%,,125 µg/mL,500 µg/mL,500 µg/mL,,,250 µg/mL,22%,14%,18%,,,,,,
COc1ccc(OC)c(/C=C/C(=O)c2ccc3ccccc3c2)c1,,,,47%,,125 µg/mL,250 µg/mL,250 µg/mL,,,125 µg/mL,49%,51%,52%,,,,,,
O=C(/C=C/c1cccc([N+](=O)[O-])c1)c1ccco1,,,125 µg/mL,16%,inactive,125 µg/mL,125 µg/mL,,inactive,,125 µg/mL,,,13%,,,,,,
O=C(/C=C/c1ccco1)c1ccc2ccccc2c1,,,250 µg/mL,21%,,125 µg/mL,,500 µg/mL,,inactive,250 µg/mL,16%,13%,,,,,,,
O=C(/C=C/c1ccc([N+](=O)[O-])cc1)c1ccc[nH]1,,,,13%,,250 µg/mL,500 µg/mL,,,,,11%,11%,14%,,,,,,
COc1cc(/C=C/C(=O)c2ccco2)cc(OC)c1OC,62.5 µg/mL,62.5 µg/mL,15.6 µg/mL,47%,,15.6 µg/mL,62.5 µg/mL,31.2 µg/mL,,,31.2 µg/mL,42%,49%,28%,,,,,,
OC(Cn1cncn1)(Cn1cncn1)c1ccc(F)cc1F [FLUCONAZOLE],0.3 µg/mL,0.2 µg/mL,,,,,,,,,,,,,,,,,,
COc1ccc(/C=C/C(=O)c2ccco2)cc1OC,250 µg/mL,125 µg/mL,31.2 µg/mL,27%,,31.2 µg/mL,15.6 µg/mL,15.6 µg/mL,,inactive,31.2 µg/mL,29%,33%,,,,,,,
O=C(/C=C/c1ccc2c(c1)OCO2)c1ccco1,,500 µg/mL,125 µg/mL,13%,,62.5 µg/mL,125 µg/mL,125 µg/mL,,,31.2 µg/mL,21%,16%,11%,,,,,,
COc1ccc(/C=C/C(=O)c2ccc3ccccc3c2)cc1O,,,250 µg/mL,57%,,15.6 µg/mL,62.5 µg/mL,125 µg/mL,,,31.2 µg/mL,47%,61%,52%,,,,,,

# Reference: ChEMBL document CHEMBL3045657, “Synthesis and biological evaluation of naphthalene, furan and pyrrole based chalcones as cytotoxic and antimicrobial agents” (2012)
